# Laboratory results: patent US11547681B2, “N-acylethanolamide derivatives and uses thereof” (ELIEM THERAPEUTICS, INC., priority 2016, dated 2023)
# Experiment: in vitro
# Details: for Concentration (μM) of analyte PEA, 0 min / Concentration (μM) of analyte PEA, 10 min / Concentration (μM) of analyte PEA, 20 min / Concentration (μM) of analyte PEA, 30 min / Concentration (μM) of analyte PEA, 60 min / % Remaining of Initial (n = 1), 0 min / % Remaining of Initial (n = 1), 10 min / % Remaining of Initial (n = 1), 20 min / % Remaining of Initial (n = 1), 30 min / % Remaining of Initial (n = 1), 60 min / Concentration, analyte PEA / % Remaining of Initial (n = 1) / Measured concentration of PEA (analyte) / % Remaining of Initial: 1 μM
# Method in brief: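 Cofactor-supplemented liver S9 incubations at 37 °C contained 1 µM compound; timepoints out to 60 min, acid/organic quench, then LC-MS/MS monitoring of prodrug alongside its expected drug, PEA. Data are expressed as % remaining versus the zero-minute sample.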
# [1] = male, Sprague-Dawley, rat, 0 min
# [2] = male, Sprague-Dawley, rat, 10 min
# [3] = male, Sprague-Dawley, rat, 20 min
# [4] = male, Sprague-Dawley, rat, 30 min
# [5] = male, Sprague-Dawley, rat, 60 min
# [6] = male, Sprague-Dawley, rat, s9, 0 h
# [7] = male, Sprague-Dawley, rat, s9, 10 min
# [8] = male, Sprague-Dawley, rat, s9, 20 min
# [9] = male, Sprague-Dawley, rat, s9, 0.5 h
# [10] = male, Sprague-Dawley, rat, s9, 1 h
# [11] = male, CD-1, mouse, s9, Half-life
# [12] = male, Sprague-Dawley, rat, s9, Half-life
structure (smiles),measurement,setting,value
CCCCCCCCCCCCCCCC(=O)NCCOC(=O)CCC(=O)OCC(COC(=O)CCC)OC(=O)CCC (centres unmarked) [Compound I-11],"Concentration (μM) of analyte PEA, 0 min","both, human, 0 min",0.047 µM
same,"Concentration (μM) of analyte PEA, 10 min","both, human, 10 min",0.25 µM
same,"Concentration (μM) of analyte PEA, 20 min","both, human, 20 min",0.18 µM
same,"Concentration (μM) of analyte PEA, 30 min","both, human, 30 min",0.14 µM
same,"Concentration (μM) of analyte PEA, 60 min","both, human, 60 min",0.033 µM
same,"% Remaining of Initial (n = 1), 0 min","both, human, s9, 0 h",100%
same,"% Remaining of Initial (n = 1), 10 min","both, human, s9, 10 min",2.8%
same,"% Remaining of Initial (n = 1), 20 min","both, human, s9, 20 min",<1.0%
same,"% Remaining of Initial (n = 1), 30 min","both, human, s9, 0.5 h",<1.0%
same,"% Remaining of Initial (n = 1), 60 min","both, human, s9, 1 h",<1.0%
same,"Concentration (μM) of analyte PEA, 0 min","male, Beagle, dog, 0 min",0.069 µM
same,"Concentration (μM) of analyte PEA, 10 min","male, Beagle, dog, 10 min",0.51 µM
same,"Concentration (μM) of analyte PEA, 20 min","male, Beagle, dog, 20 min",0.34 µM
same,"Concentration (μM) of analyte PEA, 30 min","male, Beagle, dog, 30 min",0.29 µM
same,"Concentration (μM) of analyte PEA, 60 min","male, Beagle, dog, 60 min",0.13 µM
same,"% Remaining of Initial (n = 1), 0 min","male, Beagle, dog, s9, 0 h",100%
same,"% Remaining of Initial (n = 1), 10 min","male, Beagle, dog, s9, 10 min",4.6%
same,"% Remaining of Initial (n = 1), 20 min","male, Beagle, dog, s9, 20 min",1.6%
same,"% Remaining of Initial (n = 1), 30 min","male, Beagle, dog, s9, 0.5 h",<1.0%
same,"% Remaining of Initial (n = 1), 60 min","male, Beagle, dog, s9, 1 h",<1.0%
same,"Concentration (μM) of analyte PEA, 0 min","male, CD-1, mouse, 0 min",0.18 µM
same,"Concentration (μM) of analyte PEA, 10 min","male, CD-1, mouse, 10 min",0.24 µM
same,"Concentration (μM) of analyte PEA, 20 min","male, CD-1, mouse, 20 min",0.13 µM
same,"Concentration (μM) of analyte PEA, 30 min","male, CD-1, mouse, 30 min",0.083 µM
same,"Concentration (μM) of analyte PEA, 60 min","male, CD-1, mouse, 60 min",0.015 µM
same,"% Remaining of Initial (n = 1), 0 min","male, CD-1, mouse, s9, 0 h",100%
same,"% Remaining of Initial (n = 1), 10 min","male, CD-1, mouse, s9, 10 min",<1.0%
same,"% Remaining of Initial (n = 1), 20 min","male, CD-1, mouse, s9, 20 min",<1.0%
same,"% Remaining of Initial (n = 1), 30 min","male, CD-1, mouse, s9, 0.5 h",<1.0%
same,"% Remaining of Initial (n = 1), 60 min","male, CD-1, mouse, s9, 1 h",<1.0%
same,half-life at 1 μM,"male, CD-1, mouse, s9, Half-life (min)",< 1 min
same,"Concentration (μM) of analyte PEA, 0 min",[1],0 µM
same,"Concentration (μM) of analyte PEA, 10 min",[2],0.14 µM
same,"Concentration (μM) of analyte PEA, 20 min",[3],0.091 µM
same,"Concentration (μM) of analyte PEA, 30 min",[4],0.059 µM
same,"Concentration (μM) of analyte PEA, 60 min",[5],0.0062 µM
same,"% Remaining of Initial (n = 1), 0 min",[6],100%
same,"% Remaining of Initial (n = 1), 10 min",[7],<1.0%
same,"% Remaining of Initial (n = 1), 20 min",[8],<1.0%
same,"% Remaining of Initial (n = 1), 30 min",[9],<1.0%
same,"% Remaining of Initial (n = 1), 60 min",[10],<1.0%
same,half-life at 1 μM,"male, Sprague-Dawley, rat, s9, Half-life (min)",< 1 min
CCCCC/C=C\C/C=C\CCCCCCCC(=O)OCC(COC(=O)CCC(=O)OCCNC(=O)CCCCCCCCCCCCCCC)OC(=O)CCCCCCC/C=C\C/C=C\CCCCC (centres unmarked) [Compound I-13],"Concentration, analyte PEA","both, human, 0 min",0 µM
same,"Concentration, analyte PEA","both, human, 10 min",0 µM
same,"Concentration, analyte PEA","both, human, 20 min",0 µM
same,"Concentration, analyte PEA","both, human, 30 min",0 µM
same,"Concentration, analyte PEA","both, human, 60 min",0 µM
same,% Remaining of Initial (n = 1),"both, human, s9, 0 h",100%
same,% Remaining of Initial (n = 1),"both, human, s9, 10 min",93%
same,% Remaining of Initial (n = 1),"both, human, s9, 20 min",87%
same,% Remaining of Initial (n = 1),"both, human, s9, 0.5 h",78%
same,% Remaining of Initial (n = 1),"both, human, s9, 1 h",45%
same,half-life at 1 μM,"both, human, s9, Half-life",58 min
same,"Concentration, analyte PEA","male, Beagle, dog, 0 min",0.015 µM
same,"Concentration, analyte PEA","male, Beagle, dog, 10 min",0.025 µM
same,"Concentration, analyte PEA","male, Beagle, dog, 20 min",0.020 µM
same,"Concentration, analyte PEA","male, Beagle, dog, 30 min",0.024 µM
same,"Concentration, analyte PEA","male, Beagle, dog, 60 min",0.021 µM
same,% Remaining of Initial (n = 1),"male, Beagle, dog, s9, 0 h",100%
same,% Remaining of Initial (n = 1),"male, Beagle, dog, s9, 10 min",70%
same,% Remaining of Initial (n = 1),"male, Beagle, dog, s9, 20 min",61%
same,% Remaining of Initial (n = 1),"male, Beagle, dog, s9, 0.5 h",61%
same,% Remaining of Initial (n = 1),"male, Beagle, dog, s9, 1 h",37%
same,"Concentration, analyte PEA","male, CD-1, mouse, 0 min",0 µM
same,"Concentration, analyte PEA","male, CD-1, mouse, 10 min",0 µM
same,"Concentration, analyte PEA","male, CD-1, mouse, 20 min",0 µM
same,"Concentration, analyte PEA","male, CD-1, mouse, 30 min",0 µM
same,"Concentration, analyte PEA","male, CD-1, mouse, 60 min",0 µM
same,% Remaining of Initial (n = 1),"male, CD-1, mouse, s9, 0 h",100%
same,% Remaining of Initial (n = 1),"male, CD-1, mouse, s9, 10 min",89%
same,% Remaining of Initial (n = 1),"male, CD-1, mouse, s9, 20 min",90%
same,% Remaining of Initial (n = 1),"male, CD-1, mouse, s9, 0.5 h",79%
same,% Remaining of Initial (n = 1),"male, CD-1, mouse, s9, 1 h",78%
same,half-life at 1 μM,[11],> 60 min
same,"Concentration, analyte PEA",[1],0 µM
same,"Concentration, analyte PEA",[2],0 µM
same,"Concentration, analyte PEA",[3],0 µM
same,"Concentration, analyte PEA",[4],0 µM
same,"Concentration, analyte PEA",[5],0 µM
same,% Remaining of Initial (n = 1),[6],100%
same,% Remaining of Initial (n = 1),[7],76%
same,% Remaining of Initial (n = 1),[8],74%
same,% Remaining of Initial (n = 1),[9],59%
same,% Remaining of Initial (n = 1),[10],45%
same,half-life at 1 μM,[12],50 min
CCCCCCCCCCCCCCCC(=O)NCCOC(=O)CCC(=O)OC(COC(=O)CCC)COC(=O)CCC [Compound I-16],Measured concentration of PEA (analyte),"both, human, 0 min",0.10 µM
same,Measured concentration of PEA (analyte),"both, human, 10 min",0.46 µM
same,Measured concentration of PEA (analyte),"both, human, 20 min",0.42 µM
same,Measured concentration of PEA (analyte),"both, human, 30 min",0.39 µM
same,Measured concentration of PEA (analyte),"both, human, 60 min",0.27 µM
same,% Remaining of Initial,"both, human, s9, 0 h",100%
same,% Remaining of Initial,"both, human, s9, 10 min",4.9%
same,% Remaining of Initial,"both, human, s9, 20 min",2.1%
same,% Remaining of Initial,"both, human, s9, 0.5 h",<1.0%
same,% Remaining of Initial,"both, human, s9, 1 h",<1.0%
same,half-life at 1 μM,"both, human, s9, Half-life",< 10 min
same,Measured concentration of PEA (analyte),"male, Beagle, dog, 0 min",0.053 µM
same,Measured concentration of PEA (analyte),"male, Beagle, dog, 10 min",0.26 µM
same,Measured concentration of PEA (analyte),"male, Beagle, dog, 20 min",0.33 µM
same,Measured concentration of PEA (analyte),"male, Beagle, dog, 30 min",0.29 µM
same,Measured concentration of PEA (analyte),"male, Beagle, dog, 60 min",0.23 µM
same,% Remaining of Initial,"male, Beagle, dog, s9, 0 h",100%
same,% Remaining of Initial,"male, Beagle, dog, s9, 10 min",2.1%
same,% Remaining of Initial,"male, Beagle, dog, s9, 20 min",<1.0%
same,% Remaining of Initial,"male, Beagle, dog, s9, 0.5 h",<1.0%
same,% Remaining of Initial,"male, Beagle, dog, s9, 1 h",<1.0%
same,half-life at 1 μM,"male, Beagle, dog, s9, Half-life",< 10 min
same,Measured concentration of PEA (analyte),"male, CD-1, mouse, 0 min",0.33 µM
same,Measured concentration of PEA (analyte),"male, CD-1, mouse, 10 min",0.78 µM
same,Measured concentration of PEA (analyte),"male, CD-1, mouse, 20 min",0.68 µM
same,Measured concentration of PEA (analyte),"male, CD-1, mouse, 30 min",0.59 µM
same,Measured concentration of PEA (analyte),"male, CD-1, mouse, 60 min",0.43 µM
same,% Remaining of Initial,"male, CD-1, mouse, s9, 0 h",100%
same,% Remaining of Initial,"male, CD-1, mouse, s9, 10 min",3.7%
same,% Remaining of Initial,"male, CD-1, mouse, s9, 20 min",<1.0%
same,% Remaining of Initial,"male, CD-1, mouse, s9, 0.5 h",<1.0%
same,% Remaining of Initial,"male, CD-1, mouse, s9, 1 h",<1.0%
same,half-life at 1 μM,[11],< 10 min
same,Measured concentration of PEA (analyte),[1],0.050 µM
same,Measured concentration of PEA (analyte),[2],0.13 µM
same,Measured concentration of PEA (analyte),[3],0.13 µM
same,Measured concentration of PEA (analyte),[4],0.058 µM
same,Measured concentration of PEA (analyte),[5],0.020 µM
same,% Remaining of Initial,[6],100%
same,% Remaining of Initial,[7],3.0%
same,% Remaining of Initial,[8],<1.0%
same,% Remaining of Initial,[9],<1.0%
same,% Remaining of Initial,[10],<1.0%
same,half-life at 1 μM,[12],< 10 min
same,half-life at 1 μM,"male, Sprague-Dawley, rat, s9, Half-life, calculated value in parentheses",2 min
"C[C@]12CC[C@H]3[C@@H](CCC4=CC(=O)CC[C@@]43C)[C@@H]1CC[C@@H]2O [Testosterone, testosterone, reference compound]",Half-life,"Control Compound, Human liver S9",28 min
same,Half-life,"Control Compound, Mouse liver S9",9.0 min
same,CLint,"Control Compound, Rat liver S9",0.260 ml/min/mg protein
same,Half-life,Human liver S9,28 min
same,half-life,"male, Beagle, s9",25 min
same,Half-life,"male, CD-1, mouse, s9",17 min
same,half-life,"male, CD-1, mouse, s9",8.7 min
same,half-life,"male, Sprague-Dawley, rat, s9, Half-life, Control Compound, Rat liver S9",2.7 min
same,half-life at 1 μM,"male, Sprague-Dawley, rat, s9, Half-life, Rat liver S9",2.7 min
same,half-life,"male, Sprague-Dawley, rat, s9, Half-life, control compound, rat liver S9",2.7 min
